Reference: patent publication US20140011889A1, “Resveratrol-Containing Compositions and Methods of Use for Cardiac-Related Diseases” (Resveratrol Partners, LLC, priority 2010, published 2014)

Experiments:
breast cancer cells = settings: cited from earlier work
cancer risk = settings: 1100 IU, 4-year period, women in Nebraska; cited from earlier work
reactive oxygen species = assay: Intracellular ROS by CM-H2DCFDA fluorescence in I/R heart; format: in vivo, rat; settings: IR heart, FIG. 19
Experimental: The dye was injected intravenously, prior to induction of ischemia/reperfusion, and at the end of the experiments, the level of fluorescence was determined for the generation of ROS by measuring the fluorescent oxidation product CM-DCF in the cytosol, at an excitation wavelength of 480 nm and an emission wavelength of 520 nm.

miR-20b = miR-20b quantification in I/R heart, Taqman real-time PCR; format: in vivo, rat; settings: I/R alone: down regulation […]; FIG. 17C
Text: Animals. […] Male Sprague-Dawley rats weighing between 250 and 300 g were fed ad libitum regular rat chow with free access to water until the start of the experimental procedure.

SIRT1 = target: T1, SIRT1 (Homo sapiens, UniProt Q96EB6); assay: SIRT1 Fluorescent Activity Assay/Drug Discovery Kit AK-555; format: biochemical; settings: capsules stored under ambient conditions
T1 sequence (Q96EB6 1-747): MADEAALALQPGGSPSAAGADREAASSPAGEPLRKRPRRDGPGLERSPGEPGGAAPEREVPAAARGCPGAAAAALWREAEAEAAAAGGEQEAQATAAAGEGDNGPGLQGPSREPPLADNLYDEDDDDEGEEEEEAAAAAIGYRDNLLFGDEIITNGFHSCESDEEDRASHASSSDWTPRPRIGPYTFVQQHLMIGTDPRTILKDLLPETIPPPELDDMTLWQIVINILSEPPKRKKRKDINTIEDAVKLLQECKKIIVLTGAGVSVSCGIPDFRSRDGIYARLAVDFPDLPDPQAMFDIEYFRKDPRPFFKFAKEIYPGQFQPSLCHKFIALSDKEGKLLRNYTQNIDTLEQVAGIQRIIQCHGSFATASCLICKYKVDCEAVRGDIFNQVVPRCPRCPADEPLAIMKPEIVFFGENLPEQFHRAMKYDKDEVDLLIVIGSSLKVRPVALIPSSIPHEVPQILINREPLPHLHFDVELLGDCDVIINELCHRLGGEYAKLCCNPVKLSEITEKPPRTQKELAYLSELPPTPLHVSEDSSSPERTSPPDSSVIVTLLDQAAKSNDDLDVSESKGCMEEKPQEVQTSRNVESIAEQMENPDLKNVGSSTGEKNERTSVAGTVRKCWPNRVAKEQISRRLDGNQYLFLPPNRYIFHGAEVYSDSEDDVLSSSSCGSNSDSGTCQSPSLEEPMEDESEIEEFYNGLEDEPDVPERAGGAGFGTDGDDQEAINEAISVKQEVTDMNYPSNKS

rhabdomyosarcoma cells = settings: low dosage; cited from earlier work
injected tumors = settings: mice with injected tumors; cited from earlier work

## C=C1CC[C@H](O)C/C1=C/C=C1\CCC[C@]2(C)[C@@H]([C@H](C)CCCC(C)C)CC[C@@H]12 [vitamin D3, cholecalciferol]
Breast cancer cells; higher concentrations of vitamin D3
  decline of number of breast cancer cells: about 25%
Breast cancer cells; low-dose vitamin D3
  decline of breast tumor cell numbers: does not reduce
Cancer risk
  reduction in cancer risk: 60-77%

## CC(C)=CCC/C(C)=C/CC/C(C)=C/CC[C@]1(C)CCc2cc(O)c(C)c(C)c2O1 [γ-tocotrienol]
Reactive oxygen species
  intracellular ROS concentration compared to control: lowered
miR-20b
  miR-20b expression in pretreated I/R hearts: 9.4 fold

## O=c1c(O)c(-c2ccc(O)c(O)c2)oc2cc(O)cc(O)c12 [quercetin]
SIRT1
  biological activity of encapsulated quercetin (ability to stimulate SIRT1 activity): maintained biological activity

## O=P(O)(O)O[C@H]1[C@H](OP(=O)(O)O)[C@@H](OP(=O)(O)O)[C@H](OP(=O)(O)O)[C@@H](OP(=O)(O)O)[C@H]1OP(=O)(O)O [IP6, (2,3,4,5,6-pentaphosphonooxycyclohexyl)dihydrogen phosphate]
Rhabdomyosarcoma cells
  suppression of growth of rhabdomyosarcoma cells: 50%
Injected tumors
  tumor size, times smaller than non-treated mice: 50 times
